Test system: not listed separately
Assay: Cytotoxicity against human NCE-G 111 cells measured after 8 days
Format: functional, cell-based
Conditions: NCE-G 111, 192 h

Structure (SMILES)	IC50
C/C=C/Cn1cc(-c2cc(OC)c(C(=O)N3CCOCC3)cc2OC)c2cc(C)[nH]c2c1=O	2000 nM

Test system: WSUDLCL2
Assay: Cytotoxicity against human WSUDLCL2 cells measured after 8 days
Format: functional, cell-based
Conditions: WSUDLCL2, 192 h

Structure (SMILES)	IC50
C/C=C/Cn1cc(-c2cc(OC)c(C(=O)N3CCOCC3)cc2OC)c2cc(C)[nH]c2c1=O	2000 nM

Test system: JIMT-1
Assay: Cytotoxicity against human JIMT-1 cells measured after 8 days
Format: functional, cell-based
Conditions: JIMT-1, 192 h

Structure (SMILES)	IC50
C/C=C/Cn1cc(-c2cc(OC)c(C(=O)N3CCOCC3)cc2OC)c2cc(C)[nH]c2c1=O	2000 nM

Test system: DLD-1
Assay: Cytotoxicity against human DLD-1 cells measured after 8 days
Format: functional, cell-based
Conditions: DLD-1, 192 h

Structure (SMILES)	IC50
C/C=C/Cn1cc(-c2cc(OC)c(C(=O)N3CCOCC3)cc2OC)c2cc(C)[nH]c2c1=O	2000 nM

Test system: not listed separately
Assay: Cytotoxicity against human NCI-H2803 cells measured after 8 days
Format: functional, cell-based
Conditions: NCI-H2803, 192 h

Structure (SMILES)	IC50
C/C=C/Cn1cc(-c2cc(OC)c(C(=O)N3CCOCC3)cc2OC)c2cc(C)[nH]c2c1=O	2000 nM

Test system: NCI-H460
Assay: Cytotoxicity against human NCI-H460 cells measured after 8 days
Format: functional, cell-based
Conditions: NCI-H460, 192 h

Structure (SMILES)	IC50
C/C=C/Cn1cc(-c2cc(OC)c(C(=O)N3CCOCC3)cc2OC)c2cc(C)[nH]c2c1=O	2000 nM

Target: T1, Bromodomain-containing protein 2 (Homo sapiens, UniProt P25440)
T1 sequence (P25440 whole entry, the tested form may be a part, canonical isoform): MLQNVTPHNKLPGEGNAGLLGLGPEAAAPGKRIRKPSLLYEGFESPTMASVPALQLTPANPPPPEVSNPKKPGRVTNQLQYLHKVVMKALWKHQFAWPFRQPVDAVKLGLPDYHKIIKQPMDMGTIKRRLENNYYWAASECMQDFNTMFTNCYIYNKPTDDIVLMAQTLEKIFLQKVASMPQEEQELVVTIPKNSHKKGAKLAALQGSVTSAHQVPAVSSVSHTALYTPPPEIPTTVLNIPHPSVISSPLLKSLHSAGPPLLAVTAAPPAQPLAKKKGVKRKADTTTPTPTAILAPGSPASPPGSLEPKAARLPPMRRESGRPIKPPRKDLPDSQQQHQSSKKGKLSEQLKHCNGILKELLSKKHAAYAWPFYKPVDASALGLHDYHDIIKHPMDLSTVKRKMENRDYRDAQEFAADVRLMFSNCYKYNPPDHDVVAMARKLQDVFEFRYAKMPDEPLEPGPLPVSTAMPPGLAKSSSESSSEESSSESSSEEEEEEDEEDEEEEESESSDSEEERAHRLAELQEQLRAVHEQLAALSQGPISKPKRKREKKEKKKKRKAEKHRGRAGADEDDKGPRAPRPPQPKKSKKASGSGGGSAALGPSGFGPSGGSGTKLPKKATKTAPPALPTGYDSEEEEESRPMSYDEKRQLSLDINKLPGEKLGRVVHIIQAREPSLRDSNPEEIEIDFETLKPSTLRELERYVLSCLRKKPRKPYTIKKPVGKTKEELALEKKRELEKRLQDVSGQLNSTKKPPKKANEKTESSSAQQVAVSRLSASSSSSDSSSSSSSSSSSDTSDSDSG
Assay: Binding affinity to human partial length BRD2 bromodomain 2 isoform 1 (E348 to D455 residues) expressed in bacterial expression system by BROMOscan assay
Conditions: not given

Structure (SMILES)	Kd
C/C=C/Cn1cc(-c2cc(OC)c(C(=O)N3CCOCC3)cc2OC)c2cc(C)[nH]c2c1=O	> 10000 nM

Target: T1, Bromodomain-containing protein 2
Assay: Binding affinity to human partial length BRD2 bromodomain 1 long isoform (K71 to N194 residues) expressed in bacterial expression system by BROMOscan assay
Conditions: not given

Structure (SMILES)	Kd
C/C=C/Cn1cc(-c2cc(OC)c(C(=O)N3CCOCC3)cc2OC)c2cc(C)[nH]c2c1=O	> 10000 nM

Test system: EB-3
Assay: Cytotoxicity against human EB-3 cells measured after 8 days
Format: functional, cell-based
Conditions: EB-3, 192 h

Structure (SMILES)	IC50
C/C=C/Cn1cc(-c2cc(OC)c(C(=O)N3CCOCC3)cc2OC)c2cc(C)[nH]c2c1=O	2000 nM

Target: Bromodomain-containing protein 8 (Homo sapiens, UniProt Q9H0E9)
Sequence (Q9H0E9 whole entry): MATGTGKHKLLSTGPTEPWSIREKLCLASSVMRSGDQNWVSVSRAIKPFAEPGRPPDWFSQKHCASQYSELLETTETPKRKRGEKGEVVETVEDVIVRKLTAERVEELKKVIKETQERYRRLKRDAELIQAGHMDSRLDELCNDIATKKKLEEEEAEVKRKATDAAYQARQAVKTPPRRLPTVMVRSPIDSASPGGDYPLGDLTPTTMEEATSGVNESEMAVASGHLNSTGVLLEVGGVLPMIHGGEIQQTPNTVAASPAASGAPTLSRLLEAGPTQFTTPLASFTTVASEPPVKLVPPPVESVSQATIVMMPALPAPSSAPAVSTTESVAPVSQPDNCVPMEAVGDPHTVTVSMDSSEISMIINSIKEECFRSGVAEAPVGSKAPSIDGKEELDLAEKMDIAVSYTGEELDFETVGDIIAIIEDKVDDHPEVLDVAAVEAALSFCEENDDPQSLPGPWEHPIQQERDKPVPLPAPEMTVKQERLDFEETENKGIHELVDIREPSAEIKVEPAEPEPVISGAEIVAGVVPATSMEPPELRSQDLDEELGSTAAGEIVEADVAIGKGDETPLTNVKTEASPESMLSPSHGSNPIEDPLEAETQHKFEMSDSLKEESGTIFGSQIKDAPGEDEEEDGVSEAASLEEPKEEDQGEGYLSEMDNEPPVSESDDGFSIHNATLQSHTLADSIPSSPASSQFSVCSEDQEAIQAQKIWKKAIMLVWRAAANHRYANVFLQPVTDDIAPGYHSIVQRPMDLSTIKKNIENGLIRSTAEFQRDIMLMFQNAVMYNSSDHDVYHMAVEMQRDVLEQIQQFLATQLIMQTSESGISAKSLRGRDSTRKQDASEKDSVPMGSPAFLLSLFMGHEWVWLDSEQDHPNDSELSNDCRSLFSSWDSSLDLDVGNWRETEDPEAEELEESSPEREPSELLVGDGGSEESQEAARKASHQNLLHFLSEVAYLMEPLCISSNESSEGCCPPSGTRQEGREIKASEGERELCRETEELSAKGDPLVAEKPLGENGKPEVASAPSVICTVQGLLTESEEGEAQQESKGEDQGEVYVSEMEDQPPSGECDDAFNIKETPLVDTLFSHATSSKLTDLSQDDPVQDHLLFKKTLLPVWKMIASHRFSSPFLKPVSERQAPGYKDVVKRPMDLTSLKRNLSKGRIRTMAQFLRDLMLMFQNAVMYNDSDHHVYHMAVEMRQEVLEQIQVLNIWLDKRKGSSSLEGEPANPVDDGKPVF
Assay: Binding affinity to BRD8 bromodomain 2 (unknown origin) by BROMOscan assay
Conditions: not given

Structure (SMILES)	Kd
C/C=C/Cn1cc(-c2cc(OC)c(C(=O)N3CCOCC3)cc2OC)c2cc(C)[nH]c2c1=O	> 10000 nM

Target: Transcription initiation factor TFIID subunit 1-like (Homo sapiens, UniProt Q8IZX4)
Assay: Binding affinity to human partial length TAF1L bromodomain 2 (Q1523 to D1654 residues) expressed in bacterial expression system by BROMOscan assay
Conditions: not given

Structure (SMILES)	Kd
C/C=C/Cn1cc(-c2cc(OC)c(C(=O)N3CCOCC3)cc2OC)c2cc(C)[nH]c2c1=O	> 10000 nM

Test system: NCI-H23
Assay: Cytotoxicity against human NCI-H23 cells measured after 8 days
Format: functional, cell-based
Conditions: NCI-H23, 192 h

Structure (SMILES)	IC50
C/C=C/Cn1cc(-c2cc(OC)c(C(=O)N3CCOCC3)cc2OC)c2cc(C)[nH]c2c1=O	2000 nM

Target: Beta-2 adrenergic receptor (Homo sapiens) (UniProt P07550)
Sequence (P07550 whole entry, looked up): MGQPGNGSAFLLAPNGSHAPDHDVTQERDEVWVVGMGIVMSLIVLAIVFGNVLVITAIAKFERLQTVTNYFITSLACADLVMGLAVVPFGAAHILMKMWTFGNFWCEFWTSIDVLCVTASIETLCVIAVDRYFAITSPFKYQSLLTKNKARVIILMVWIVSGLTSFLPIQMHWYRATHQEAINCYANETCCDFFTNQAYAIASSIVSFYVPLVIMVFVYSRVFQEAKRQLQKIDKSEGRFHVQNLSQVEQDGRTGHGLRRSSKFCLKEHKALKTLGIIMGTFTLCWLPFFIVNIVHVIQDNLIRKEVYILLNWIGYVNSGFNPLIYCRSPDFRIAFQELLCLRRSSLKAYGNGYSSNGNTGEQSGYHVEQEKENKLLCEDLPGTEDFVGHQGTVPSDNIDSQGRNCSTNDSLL
Assay: Displacement of [3H](-)CGP 12177 from human recombinant beta2 adrenoceptor at 10 uM after 120 mins by scintillation counting analysis relative to control
Conditions: not given

Structure (SMILES)	Activity
C/C=C/Cn1cc(-c2cc(OC)c(C(=O)N3CCOCC3)cc2OC)c2cc(C)[nH]c2c1=O	-1%

Test system: Ramos
Assay: Cytotoxicity against human Ramos cells measured after 8 days
Format: functional, cell-based
Conditions: 192 h

Structure (SMILES)	IC50
C/C=C/Cn1cc(-c2cc(OC)c(C(=O)N3CCOCC3)cc2OC)c2cc(C)[nH]c2c1=O	2000 nM

Test system: MHH-PREB-1
Assay: Cytotoxicity against human MHH-PREB-1 cells measured after 8 days
Format: functional, cell-based
Conditions: MHH-PREB-1, 192 h

Structure (SMILES)	IC50
C/C=C/Cn1cc(-c2cc(OC)c(C(=O)N3CCOCC3)cc2OC)c2cc(C)[nH]c2c1=O	2000 nM

Test system: COLO-741
Assay: Cytotoxicity against human COLO-741 cells measured after 8 days
Format: functional, cell-based
Conditions: COLO-741, 192 h

Structure (SMILES)	IC50
C/C=C/Cn1cc(-c2cc(OC)c(C(=O)N3CCOCC3)cc2OC)c2cc(C)[nH]c2c1=O	2000 nM

Target: Dual specificity protein kinase CLK2 (Homo sapiens) (UniProt P49760)
Sequence (P49760 whole entry, looked up): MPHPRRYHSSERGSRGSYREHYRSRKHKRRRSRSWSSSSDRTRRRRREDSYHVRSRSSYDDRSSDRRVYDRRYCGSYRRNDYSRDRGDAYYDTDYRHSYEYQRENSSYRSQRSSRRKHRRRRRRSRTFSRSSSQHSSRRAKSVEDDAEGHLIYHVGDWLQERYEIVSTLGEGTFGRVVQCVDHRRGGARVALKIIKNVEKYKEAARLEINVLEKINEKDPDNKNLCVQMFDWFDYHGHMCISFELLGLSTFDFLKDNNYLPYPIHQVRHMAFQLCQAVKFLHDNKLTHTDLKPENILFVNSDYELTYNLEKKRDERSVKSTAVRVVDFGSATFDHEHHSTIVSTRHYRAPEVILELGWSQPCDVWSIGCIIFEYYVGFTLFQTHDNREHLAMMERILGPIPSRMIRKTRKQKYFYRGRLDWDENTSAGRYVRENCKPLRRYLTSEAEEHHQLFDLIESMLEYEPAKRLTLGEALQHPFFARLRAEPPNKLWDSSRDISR
Assay: Inhibition of CLK2 (unknown origin) at 1 uM relative to control
Conditions: not given

Structure (SMILES)	inhibition
C/C=C/Cn1cc(-c2cc(OC)c(C(=O)N3CCOCC3)cc2OC)c2cc(C)[nH]c2c1=O	7.5%

Test system: U-937
Assay: Cytotoxicity against human U-937 cells measured after 8 days
Format: functional, cell-based
Conditions: U-937, 192 h

Structure (SMILES)	IC50
C/C=C/Cn1cc(-c2cc(OC)c(C(=O)N3CCOCC3)cc2OC)c2cc(C)[nH]c2c1=O	2000 nM

Target: Serine/threonine-protein kinase 24 (Homo sapiens) (UniProt Q9Y6E0)
Assay: Inhibition of MST3 (unknown origin) at 1 uM relative to control
Conditions: not given

Structure (SMILES)	inhibition
C/C=C/Cn1cc(-c2cc(OC)c(C(=O)N3CCOCC3)cc2OC)c2cc(C)[nH]c2c1=O	7%

Test system: not listed separately
Assay: Cytotoxicity against human PL-21 cells measured after 8 days
Format: functional, cell-based
Conditions: PL-21, 192 h

Structure (SMILES)	IC50
C/C=C/Cn1cc(-c2cc(OC)c(C(=O)N3CCOCC3)cc2OC)c2cc(C)[nH]c2c1=O	2000 nM

Test system: Hs-578T
Assay: Cytotoxicity against human Hs-578T cells measured after 8 days
Format: functional, cell-based
Conditions: 192 h

Structure (SMILES)	IC50
C/C=C/Cn1cc(-c2cc(OC)c(C(=O)N3CCOCC3)cc2OC)c2cc(C)[nH]c2c1=O	2000 nM

Test system: UACC-62
Assay: Cytotoxicity against human UACC-62 cells measured after 8 days
Format: functional, cell-based
Conditions: UACC-62, 192 h

Structure (SMILES)	IC50
C/C=C/Cn1cc(-c2cc(OC)c(C(=O)N3CCOCC3)cc2OC)c2cc(C)[nH]c2c1=O	2000 nM

Target: Histamine H2 receptor (Homo sapiens) (UniProt P25021)
Sequence (P25021 whole entry): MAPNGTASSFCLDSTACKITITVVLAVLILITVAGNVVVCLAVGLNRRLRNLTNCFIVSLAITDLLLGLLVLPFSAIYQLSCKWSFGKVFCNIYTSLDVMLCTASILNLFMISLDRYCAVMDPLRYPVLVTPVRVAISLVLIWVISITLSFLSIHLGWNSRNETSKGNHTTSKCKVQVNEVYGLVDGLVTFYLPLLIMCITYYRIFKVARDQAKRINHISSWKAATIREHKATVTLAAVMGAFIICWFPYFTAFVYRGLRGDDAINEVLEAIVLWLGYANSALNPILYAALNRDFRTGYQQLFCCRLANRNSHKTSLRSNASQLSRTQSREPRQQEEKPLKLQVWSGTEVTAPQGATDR
Assay: Displacement of [125I]APT from human recombinant histamine H2 receptor at 10 uM after 120 mins by scintillation counting analysis relative to control
Conditions: not given

Structure (SMILES)	Activity
C/C=C/Cn1cc(-c2cc(OC)c(C(=O)N3CCOCC3)cc2OC)c2cc(C)[nH]c2c1=O	-5%

Target: Kappa-type opioid receptor (Homo sapiens) (UniProt P41145)
Assay: Displacement of [3H]U69593 from human kappa receptor at 10 uM after 60 mins by scintillation counting analysis relative to control
Conditions: not given

Structure (SMILES)	Activity
C/C=C/Cn1cc(-c2cc(OC)c(C(=O)N3CCOCC3)cc2OC)c2cc(C)[nH]c2c1=O	8%

Test system: MDA-MB-231
Assay: Cytotoxicity against human MDA-MB-231 cells measured after 8 days
Format: functional, cell-based
Conditions: MDA-MB-231, 192 h

Structure (SMILES)	IC50
C/C=C/Cn1cc(-c2cc(OC)c(C(=O)N3CCOCC3)cc2OC)c2cc(C)[nH]c2c1=O	2000 nM

Test system: not listed separately
Assay: Cytotoxicity against human HT115 cells measured after 8 days
Format: functional, cell-based
Conditions: HT115, 192 h

Structure (SMILES)	IC50
C/C=C/Cn1cc(-c2cc(OC)c(C(=O)N3CCOCC3)cc2OC)c2cc(C)[nH]c2c1=O	2000 nM

Test system: not listed separately
Assay: Cytotoxicity against human WSU-FSCCL cells measured after 8 days
Format: functional, cell-based
Conditions: 192 h

Structure (SMILES)	IC50
C/C=C/Cn1cc(-c2cc(OC)c(C(=O)N3CCOCC3)cc2OC)c2cc(C)[nH]c2c1=O	810 nM

Target: Proto-oncogene tyrosine-protein kinase receptor Ret (Homo sapiens) (UniProt P07949)
Sequence (P07949 whole entry): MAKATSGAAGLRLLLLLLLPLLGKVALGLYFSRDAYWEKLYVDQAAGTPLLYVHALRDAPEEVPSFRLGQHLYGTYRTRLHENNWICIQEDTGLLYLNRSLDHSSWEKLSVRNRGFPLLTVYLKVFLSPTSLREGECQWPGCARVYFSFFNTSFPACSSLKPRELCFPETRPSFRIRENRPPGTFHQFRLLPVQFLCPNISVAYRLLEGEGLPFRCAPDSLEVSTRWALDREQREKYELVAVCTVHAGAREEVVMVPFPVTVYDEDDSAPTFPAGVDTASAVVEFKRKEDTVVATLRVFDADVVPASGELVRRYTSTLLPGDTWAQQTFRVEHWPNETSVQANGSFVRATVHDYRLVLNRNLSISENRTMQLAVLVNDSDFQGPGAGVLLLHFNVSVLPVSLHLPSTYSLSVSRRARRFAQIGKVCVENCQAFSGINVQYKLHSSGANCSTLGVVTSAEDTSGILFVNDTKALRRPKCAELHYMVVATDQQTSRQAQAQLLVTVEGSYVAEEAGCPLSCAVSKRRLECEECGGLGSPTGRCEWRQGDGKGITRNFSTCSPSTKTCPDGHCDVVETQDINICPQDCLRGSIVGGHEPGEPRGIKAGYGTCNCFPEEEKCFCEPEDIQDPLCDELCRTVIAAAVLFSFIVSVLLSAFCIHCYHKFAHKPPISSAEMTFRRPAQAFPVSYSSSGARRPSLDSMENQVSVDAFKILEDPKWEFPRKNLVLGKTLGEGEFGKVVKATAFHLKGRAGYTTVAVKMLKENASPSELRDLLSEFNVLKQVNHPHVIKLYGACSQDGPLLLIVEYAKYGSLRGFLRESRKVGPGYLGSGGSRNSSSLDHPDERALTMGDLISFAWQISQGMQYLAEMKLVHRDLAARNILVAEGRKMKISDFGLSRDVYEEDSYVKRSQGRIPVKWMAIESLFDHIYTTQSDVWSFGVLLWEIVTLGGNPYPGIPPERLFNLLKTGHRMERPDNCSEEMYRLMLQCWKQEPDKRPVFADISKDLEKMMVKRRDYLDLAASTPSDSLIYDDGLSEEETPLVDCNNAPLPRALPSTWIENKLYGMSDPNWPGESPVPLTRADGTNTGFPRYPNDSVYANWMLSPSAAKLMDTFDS
Assay: Inhibition of Ret (unknown origin) at 1 uM relative to control
Conditions: not given

Structure (SMILES)	inhibition
C/C=C/Cn1cc(-c2cc(OC)c(C(=O)N3CCOCC3)cc2OC)c2cc(C)[nH]c2c1=O	3%

Target: D(1A) dopamine receptor (Homo sapiens) (UniProt P21728)
Assay: Displacement of [3H]-SCH 23390 from human recombinant dopamine D1 receptor at 10 uM by scintillation counting 60 mins analysis relative to control
Conditions: not given

Structure (SMILES)	Activity
C/C=C/Cn1cc(-c2cc(OC)c(C(=O)N3CCOCC3)cc2OC)c2cc(C)[nH]c2c1=O	4%

Target: Proto-oncogene tyrosine-protein kinase Src (Homo sapiens) (UniProt P12931)
Sequence (P12931 2-536 limits assumed): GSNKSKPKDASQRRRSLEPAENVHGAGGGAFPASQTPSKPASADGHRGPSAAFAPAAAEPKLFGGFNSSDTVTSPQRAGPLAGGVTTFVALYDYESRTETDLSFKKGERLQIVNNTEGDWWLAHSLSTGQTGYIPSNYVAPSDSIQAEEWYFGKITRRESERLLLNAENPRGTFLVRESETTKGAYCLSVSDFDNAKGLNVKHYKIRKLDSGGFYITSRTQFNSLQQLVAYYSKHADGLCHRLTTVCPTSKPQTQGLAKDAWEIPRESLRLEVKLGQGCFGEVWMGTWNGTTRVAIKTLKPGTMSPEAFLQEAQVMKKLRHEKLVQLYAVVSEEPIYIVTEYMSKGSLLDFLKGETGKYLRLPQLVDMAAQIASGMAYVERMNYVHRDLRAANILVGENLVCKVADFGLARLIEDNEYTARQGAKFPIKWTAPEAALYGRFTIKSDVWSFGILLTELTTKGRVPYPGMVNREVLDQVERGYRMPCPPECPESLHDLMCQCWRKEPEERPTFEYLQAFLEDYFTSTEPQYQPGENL
Assay: Inhibition of Src (unknown origin) at 1 uM relative to control
Conditions: not given

Structure (SMILES)	inhibition
C/C=C/Cn1cc(-c2cc(OC)c(C(=O)N3CCOCC3)cc2OC)c2cc(C)[nH]c2c1=O	3.5%

Test system: NCI-H441
Assay: Cytotoxicity against human NCI-H441 cells measured after 8 days
Format: functional, cell-based
Conditions: NCI-H441, 192 h

Structure (SMILES)	IC50
C/C=C/Cn1cc(-c2cc(OC)c(C(=O)N3CCOCC3)cc2OC)c2cc(C)[nH]c2c1=O	2000 nM

Test system: EPLC-272H
Assay: Cytotoxicity against human EPLC-272H cells measured after 8 days
Format: functional, cell-based
Conditions: 192 h

Structure (SMILES)	IC50
C/C=C/Cn1cc(-c2cc(OC)c(C(=O)N3CCOCC3)cc2OC)c2cc(C)[nH]c2c1=O	2000 nM

Target: T2, Peroxisome proliferator-activated receptor gamma (Homo sapiens) (UniProt P37231)
T2 sequence (whole entry): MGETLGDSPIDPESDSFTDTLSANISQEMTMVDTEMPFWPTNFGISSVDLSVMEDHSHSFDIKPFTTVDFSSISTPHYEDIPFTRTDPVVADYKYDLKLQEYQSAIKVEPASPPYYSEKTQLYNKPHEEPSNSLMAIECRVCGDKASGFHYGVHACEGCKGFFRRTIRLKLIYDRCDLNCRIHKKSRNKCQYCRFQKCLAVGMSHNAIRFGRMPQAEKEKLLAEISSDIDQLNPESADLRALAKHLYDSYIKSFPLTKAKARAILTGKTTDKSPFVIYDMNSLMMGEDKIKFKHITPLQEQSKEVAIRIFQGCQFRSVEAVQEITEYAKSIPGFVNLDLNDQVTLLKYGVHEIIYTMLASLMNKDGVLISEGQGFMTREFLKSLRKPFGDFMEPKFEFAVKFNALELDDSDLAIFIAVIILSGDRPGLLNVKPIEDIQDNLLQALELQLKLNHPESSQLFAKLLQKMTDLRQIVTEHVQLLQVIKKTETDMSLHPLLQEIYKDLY
Assay: Inhibition of human PPARgamma at 10 uM relative to control
Conditions: not given

Structure (SMILES)	inhibition
C/C=C/Cn1cc(-c2cc(OC)c(C(=O)N3CCOCC3)cc2OC)c2cc(C)[nH]c2c1=O	9%

Target: Bromodomain-containing protein 4 (Homo sapiens, UniProt O60885)
Assay: Displacement of biotinylated small-molecule ligand from recombinant His-tagged BRD4 bromodomain 1 (unknown origin) measured after 10 mins by TR-FRET assay
Conditions: not given

Structure (SMILES)	IC50
C/C=C/Cn1cc(-c2cc(OC)c(C(=O)N3CCOCC3)cc2OC)c2cc(C)[nH]c2c1=O	> 20000 nM

Test system: HCC78
Assay: Cytotoxicity against human HCC78 cells measured after 8 days
Format: functional, cell-based
Conditions: HCC78, 192 h

Structure (SMILES)	IC50
C/C=C/Cn1cc(-c2cc(OC)c(C(=O)N3CCOCC3)cc2OC)c2cc(C)[nH]c2c1=O	2000 nM

Test system: NCI-H2347
Assay: Cytotoxicity against human NCI-H2347 cells measured after 8 days
Format: functional, cell-based
Conditions: NCI-H2347, 192 h

Structure (SMILES)	IC50
C/C=C/Cn1cc(-c2cc(OC)c(C(=O)N3CCOCC3)cc2OC)c2cc(C)[nH]c2c1=O	2000 nM

Target: Bromodomain-containing protein 3 (Homo sapiens, UniProt Q15059)
Assay: Binding affinity to BRD3 bromodomain 1/2 (unknown origin) by BROMOscan assay
Conditions: not given

Structure (SMILES)	Kd
C/C=C/Cn1cc(-c2cc(OC)c(C(=O)N3CCOCC3)cc2OC)c2cc(C)[nH]c2c1=O	> 10000 nM

From ChEMBL document CHEMBL5260810, “Inhibition of bromodomain-containing protein 9 for the prevention of epigenetically-defined drug resistance” (Bioorg Med Chem Lett, 2017)
